Assay [1] concerns the target mTOR/GbL/Raptor (mTORC1) (Homo sapiens, UniProt P42345). Description: mTOR/GbL/Raptor (mTORC1) ELISA Assay. Conditions: 4EBP1 used as substrate for mTOR/GbL/raptor kinase; read-out: PI3K biochemical IC50 values mTOR. The class given is biochemical. On the procedure: The measurement of mTORC1 enzyme activity was performed in an ELISA assay format following the phosphorylation of 4E-BP1 protein. All experiments were performed in the 384-well format. Generally, 0.5 μL DMSO containing varying concentrations of the test Compound was mixed with 15 μL enzyme solution. Kinase reactions were initiated with the addition of 15 μL of substrates-containing solution. The assay conditions were as follows; 0.2 nM mTORC1, 10 μM ATP and 50 nM NHis-tagged 4E-BPI in 20 mM Hepes, pH 7.2, 1 mM DTT, 50 mM NaCl, 10 mM MnCl2, 0.02 mg/mL BSA, 0.01% CHAPS, 50 mM β-glycerophosphate. Following an incubation of 120 minutes at ambient temperature, 20 μL of the reaction volume was transferred to a Ni-Chelate-coated 384-well plate. The binding step of the 4E-BP1 protein proceeded for 60 minutes, followed by washing 4 times each with 50 μL of Tris-buffered saline solution (TBS). Anti-phospho-4E-BP1 rabbit-IgG (20 μL, 1:5000) in 5% BSA-TBST (0.2% Tween-20 in TBS) was added and further incubated for 60 minutes. Incubation with a secondary HRP-tagged anti-IgG was similarly performed after washing off the primary antibody (4 washes of 50 μL). Following the final wash step with TBST, 20 μL of SuperSignal ELISA Femto (Pierce Biotechnology) was added and the luminescence measured using an EnVision plate reader.
(In general: In an ELISA, binding on a coated surface is turned into a signal by an enzyme label.)

Assay [2] addresses PI3Kα E545K (Homo sapiens, UniProt P42336, E545K). Description: PI3K Biochemical Assay. Conditions: PIP2 used as substrate. On the procedure: (§1) PI3Kα activity is measured as the percent of ATP consumed following the kinase reaction using luciferase-luciferin-coupled chemiluminescence. Reactions were conducted in 384-well white, medium binding microtiter plates (Greiner). Kinase reactions were initiated by combining test compounds, ATP, substrate (PIP2), and kinase in a 20 μL volume in a buffer solution. The standard PI3Kalpha assay buffer is composed 50 mM Tris, pH 7.5, 1 mM EGTA, 10 mM MgCl2, 1 mM DTT and 0.03% CHAPS. The standard assay concentrations for enzyme, ATP, and substrate are 1.5 nM, 1 μM, and 10 μM, respectively. The reaction mixture was incubated at ambient temperature for approximately 2 h. Following the kinase reaction, a 10 μL aliquot of luciferase-luciferin mix (Promega Kinase-Glo) was added and the chemiluminescence signal measured using a Victor2 plate reader (Perkin Elmer). Total ATP consumption was limited to 40-60% and IC50 values of control compounds correlate well with literature references. Substituting PI3Kα with PI3Kβ, PI3Kγ, or PI3Kδ, the inhibitory activity of the compounds for the other isoforms of I3K were measured.

Assay [3] deals with PI3Kα H1047R (Homo sapiens, UniProt P42336, H1047R). Nature of the assay: PI3K Biochemical Assay. Conditions: PIP2 used as substrate. The method, then:
as §1

Assay [4] concerns the target PI3Kγ (Homo sapiens, UniProt P48736). Description: PI3K Biochemical Assay. Conditions: PIP2 used as substrate. The method, then:
as §1

Assay [5] concerns the target PI3Kδ (Homo sapiens, UniProt O00329). Nature of the assay: PI3K Biochemical Assay. Conditions: PIP2 used as substrate; read-out: PI3K biochemical IC50 values P13Kδ. On the procedure:
as §1

For orientation: IC50 means the concentration that inhibits the measured activity by half.

PI3Kδ, sequence (O00329 whole entry): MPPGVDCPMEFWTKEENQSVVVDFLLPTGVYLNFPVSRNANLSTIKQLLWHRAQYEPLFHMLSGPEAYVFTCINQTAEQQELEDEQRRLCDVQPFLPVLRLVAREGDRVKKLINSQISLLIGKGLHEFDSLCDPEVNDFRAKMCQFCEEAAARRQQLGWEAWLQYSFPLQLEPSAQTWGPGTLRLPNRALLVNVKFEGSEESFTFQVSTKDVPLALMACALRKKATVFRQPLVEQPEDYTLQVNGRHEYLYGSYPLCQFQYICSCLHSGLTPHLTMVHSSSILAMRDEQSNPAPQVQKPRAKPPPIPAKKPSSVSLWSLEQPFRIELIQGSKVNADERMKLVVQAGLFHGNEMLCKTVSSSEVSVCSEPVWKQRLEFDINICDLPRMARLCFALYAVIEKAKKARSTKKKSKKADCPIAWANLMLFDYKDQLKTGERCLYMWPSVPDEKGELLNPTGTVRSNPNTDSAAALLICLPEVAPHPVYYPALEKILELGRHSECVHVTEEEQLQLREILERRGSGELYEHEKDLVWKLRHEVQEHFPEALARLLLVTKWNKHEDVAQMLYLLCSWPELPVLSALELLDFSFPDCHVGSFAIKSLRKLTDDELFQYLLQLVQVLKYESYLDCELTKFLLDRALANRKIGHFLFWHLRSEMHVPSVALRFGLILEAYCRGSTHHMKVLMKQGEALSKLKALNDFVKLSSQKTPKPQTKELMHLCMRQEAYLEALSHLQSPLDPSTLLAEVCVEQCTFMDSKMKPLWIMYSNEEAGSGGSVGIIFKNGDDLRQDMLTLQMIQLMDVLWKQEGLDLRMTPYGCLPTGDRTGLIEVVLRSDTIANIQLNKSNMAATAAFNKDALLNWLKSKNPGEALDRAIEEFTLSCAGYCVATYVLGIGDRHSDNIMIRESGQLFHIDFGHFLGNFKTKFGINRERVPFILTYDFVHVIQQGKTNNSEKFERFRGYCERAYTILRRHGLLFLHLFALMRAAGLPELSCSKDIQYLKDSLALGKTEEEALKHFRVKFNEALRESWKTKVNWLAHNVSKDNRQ
PI3Kδ, sequence (P27986 whole entry partner): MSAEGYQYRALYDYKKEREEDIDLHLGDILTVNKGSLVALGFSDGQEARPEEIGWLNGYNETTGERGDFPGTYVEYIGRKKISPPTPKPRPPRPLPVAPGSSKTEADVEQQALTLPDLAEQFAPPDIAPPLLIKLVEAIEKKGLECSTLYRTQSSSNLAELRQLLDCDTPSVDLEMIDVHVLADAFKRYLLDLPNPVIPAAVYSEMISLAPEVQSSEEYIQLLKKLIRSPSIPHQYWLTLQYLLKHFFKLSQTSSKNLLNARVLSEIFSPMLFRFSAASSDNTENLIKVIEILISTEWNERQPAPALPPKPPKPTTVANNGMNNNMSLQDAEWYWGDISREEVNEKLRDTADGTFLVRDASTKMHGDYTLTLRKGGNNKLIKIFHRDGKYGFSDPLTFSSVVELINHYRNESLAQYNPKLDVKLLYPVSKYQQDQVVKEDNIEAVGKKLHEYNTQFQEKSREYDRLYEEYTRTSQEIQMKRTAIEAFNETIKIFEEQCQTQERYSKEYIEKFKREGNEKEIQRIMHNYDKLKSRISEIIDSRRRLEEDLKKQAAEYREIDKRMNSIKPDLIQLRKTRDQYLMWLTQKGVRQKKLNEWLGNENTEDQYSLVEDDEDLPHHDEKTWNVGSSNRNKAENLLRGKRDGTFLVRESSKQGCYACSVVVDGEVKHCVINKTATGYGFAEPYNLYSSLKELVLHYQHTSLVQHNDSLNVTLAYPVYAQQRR
PI3Kα E545K, sequence (P42336 whole entry E545K): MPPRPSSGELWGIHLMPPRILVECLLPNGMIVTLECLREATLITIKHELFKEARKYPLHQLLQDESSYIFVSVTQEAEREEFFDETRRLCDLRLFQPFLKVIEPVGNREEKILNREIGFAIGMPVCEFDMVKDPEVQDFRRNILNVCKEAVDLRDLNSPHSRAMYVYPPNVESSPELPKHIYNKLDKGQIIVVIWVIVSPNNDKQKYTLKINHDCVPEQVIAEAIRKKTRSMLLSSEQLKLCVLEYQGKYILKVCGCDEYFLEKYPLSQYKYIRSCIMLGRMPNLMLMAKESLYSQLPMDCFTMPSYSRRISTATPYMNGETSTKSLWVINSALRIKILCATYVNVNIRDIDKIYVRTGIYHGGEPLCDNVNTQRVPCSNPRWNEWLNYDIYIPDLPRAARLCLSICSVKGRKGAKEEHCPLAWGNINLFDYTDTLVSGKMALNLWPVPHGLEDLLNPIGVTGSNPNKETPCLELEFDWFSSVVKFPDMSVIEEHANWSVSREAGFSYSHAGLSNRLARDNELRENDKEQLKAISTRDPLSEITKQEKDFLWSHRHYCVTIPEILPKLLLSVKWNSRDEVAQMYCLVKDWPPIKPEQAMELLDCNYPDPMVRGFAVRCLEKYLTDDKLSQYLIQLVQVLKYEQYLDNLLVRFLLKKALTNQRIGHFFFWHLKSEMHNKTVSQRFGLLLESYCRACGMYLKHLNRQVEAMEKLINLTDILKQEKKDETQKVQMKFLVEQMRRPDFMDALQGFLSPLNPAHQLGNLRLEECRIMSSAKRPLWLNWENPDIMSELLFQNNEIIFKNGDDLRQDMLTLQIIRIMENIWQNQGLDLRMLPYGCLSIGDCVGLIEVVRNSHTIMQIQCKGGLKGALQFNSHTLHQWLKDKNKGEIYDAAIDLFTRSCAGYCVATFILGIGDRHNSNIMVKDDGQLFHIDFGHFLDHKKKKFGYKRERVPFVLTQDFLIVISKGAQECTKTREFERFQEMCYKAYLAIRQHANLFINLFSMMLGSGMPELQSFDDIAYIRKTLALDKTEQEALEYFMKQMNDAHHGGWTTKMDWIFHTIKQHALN
PI3Kα E545K, sequence (P27986 whole entry partner): as the sequence (P27986 whole entry partner) above
PI3Kγ, sequence (P48736 whole entry): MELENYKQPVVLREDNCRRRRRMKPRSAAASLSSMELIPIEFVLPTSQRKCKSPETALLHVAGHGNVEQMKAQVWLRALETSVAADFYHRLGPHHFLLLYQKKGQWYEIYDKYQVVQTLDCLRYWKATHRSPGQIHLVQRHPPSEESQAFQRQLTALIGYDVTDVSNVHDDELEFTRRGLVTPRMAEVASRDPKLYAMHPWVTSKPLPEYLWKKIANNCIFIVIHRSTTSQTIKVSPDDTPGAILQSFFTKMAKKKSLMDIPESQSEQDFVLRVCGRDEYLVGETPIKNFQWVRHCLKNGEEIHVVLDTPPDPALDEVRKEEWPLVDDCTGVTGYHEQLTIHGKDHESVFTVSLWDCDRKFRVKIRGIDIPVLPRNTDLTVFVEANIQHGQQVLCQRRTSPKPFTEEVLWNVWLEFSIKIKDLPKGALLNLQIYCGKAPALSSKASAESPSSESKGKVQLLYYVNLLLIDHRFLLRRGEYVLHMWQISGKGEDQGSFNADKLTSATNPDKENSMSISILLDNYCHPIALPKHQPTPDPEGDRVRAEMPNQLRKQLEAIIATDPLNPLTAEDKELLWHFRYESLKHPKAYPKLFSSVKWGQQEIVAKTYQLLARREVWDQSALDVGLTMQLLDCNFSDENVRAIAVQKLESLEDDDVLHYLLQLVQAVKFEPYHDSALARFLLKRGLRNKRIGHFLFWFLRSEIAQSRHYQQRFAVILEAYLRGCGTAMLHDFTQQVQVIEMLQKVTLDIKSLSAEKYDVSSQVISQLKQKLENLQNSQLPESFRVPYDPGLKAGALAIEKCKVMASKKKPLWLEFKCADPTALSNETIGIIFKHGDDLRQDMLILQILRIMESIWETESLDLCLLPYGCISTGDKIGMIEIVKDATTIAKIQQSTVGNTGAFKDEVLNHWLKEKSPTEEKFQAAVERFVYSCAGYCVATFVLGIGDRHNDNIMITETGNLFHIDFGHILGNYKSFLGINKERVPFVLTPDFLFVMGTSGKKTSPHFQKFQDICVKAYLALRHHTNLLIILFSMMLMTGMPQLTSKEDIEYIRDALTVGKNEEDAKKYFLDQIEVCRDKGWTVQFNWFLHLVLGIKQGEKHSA
PI3Kα H1047R, sequence (P42336 whole entry H1047R): as the sequence (P42336 whole entry E545K) above, with K545E, H1047R counted along it
PI3Kα H1047R, sequence (P27986 whole entry partner): as the sequence (P27986 whole entry partner) above

`Cc1nc2cc(-c3ccc4c(c3)CN(c3nc(CN(C)C)nc(C)c3C(C)C)CCO4)cnc2[nH]1` [Compound 694]: the IC50 in assay [1] stood at 16 nM; in assay [2], 6 nM; in assay [3], 5 nM; in assay [4], 1850 nM; in assay [5] it was 831 nM.
`Cc1nc2ncc(-c3ccc4c(c3)CN(c3nc(CN(C)C)nc5c3CC(C)(C)CC5)CCO4)cc2[nH]1` [Compound 693]: the IC50 was 6 nM in assay [1]; 5 nM in assay [2]; 3 nM in assay [3]; 1120 nM in assay [4]; 575 nM in assay [5].
For `CCNc1nc2ccc(-c3ccc4c(c3)CN(c3ncnc(NCC)c3C)CCO4)cc2[nH]1` [Compound 699], the IC50 in assay [1] turned out to be 252 nM; in assay [2], 5 nM; in assay [3] it was 6 nM; in assay [4] it was 158 nM; in assay [5] it was 440 nM.
Turning to `CCNc1nc2ccc(-c3ccc4c(c3)CN(c3ccnc5cc(F)ccc35)CCO4)cc2[nH]1` [Compound 698], the IC50 came out at 120 nM in assay [1]; 6 nM in assay [2]; 7 nM in assay [3]; 159 nM in assay [4]; 162 nM in assay [5].
Turning to `COc1ccc2c(N3CCOc4ccc(-c5cnc6nc(C)[nH]c6c5)cc4C3)nc(CN(C)C)nc2c1` [Compound 696], the concentration for half-maximal inhibition (IC50) is 381 nM in assay [1]; 9 nM in assay [2]; 5 nM in assay [3]; 1800 nM in assay [4]; 149 nM in assay [5].

(Values after US20140080810A1 (Exelixis, Inc., priority 2010, published 2014).)
